Measured values: patent publication US11286256B2, “Bicyclic inhibitors of histone deacetylase” (Alkermes, Inc., priority 2017, dated 2022)
Converted amounts (≈) assume the structure as drawn.

Tests used:
HDAC1 = biological target: T1, HDAC1 (Homo sapiens, UniProt Q13547); assay: HDAC1 recombinant enzymatic assay; type: biochemical; details: 5 h pre-incubation, 5 nM enzyme; read-out: HDAC recombinant enzymatic IC50 HDAC1
T1 construct: purchased BPS Bioscience
Protocol: (§1) The following describes an assay protocol for measuring the deacetylation of a peptide substrate by the enzymes HDAC2 or HDAC1.
(§2) All recombinant human HDACs were purchased from BPS Bioscience. The substrate, FAM-TSRHK(AC)KL-CONH, was synthesized at NanoSyn. Final assay reactions contained 100 mM HEPES (pH 7.5), 50 mM KCl, 0.1% BSA, 0.01% Triton X-100, 1% DMSO, 1 uM substrate and 5 nM HDAC enzyme. Enzyme and compounds were pre-incubated at 25° C. for 5 hours and reactions were initiated by addition of substrate. 10 uL reactions were incubated for 17 hours at 25° C. and terminated by the addition of 40 uL of buffer containing 100 mM HEPES (pH 7.5), 0.1% BSA, 0.01% Triton X-100 and 0.05% SDS. Substrate and product peptides present in each sample were separated electrophoretically using the LabChip 3000 capillary electrophoresis instrument. Change in the relative fluorescence intensity of the substrate and product peaks reflects enzyme activity. Reaction progress was determined as the product to sum ratio (PSR):P/(S+P), where P is the peak height of the product peptide and S is the peak height of the substrate peptide. Reactions were performed in duplicate at 12 concentrations, (3× serial dilutions starting at 30 uM). IC50 values were calculated using a 4 Parameter Logistic Model.

CYP3A4 = biological target: T2, CYP3A4 (Homo sapiens, UniProt P08684); assay: CYP inhibition assay in human liver microsomes (3A4, midazolam); type: in vitro ADME; details: for inhibition at 5 min, 10 µM: probe midazolam, human liver microsomes, midazolam
T2 construct: Human liver microsomes were obtained from BD Gentest; tissue BD Gentest; host or cells: human liver microsomes
Protocol: (§3) Compounds were tested to evaluate their inhibitory potential on CYP2D6 and CYP3A4 (midazolam) using human liver microsomes. Human liver microsomes were obtained from BD Gentest, and each compound was run in duplicate.
(§4) The test compounds and reference inhibitors (quinidine for 2D6, ketoconazole for 3A4) were plated in a 96-well plate by transferring 8 μL of 10 mM stock solutions of compound in DMSO to 12 μL of acetonitrile. Individual inhibitor spiking solutions were prepared for CYP2D6 and CYP3A4 (8 μL of DMSO stock added to 12 μL of acetonitrile). Next added 400 μL of 0.2 mg/mL HLM to the assay wells and then added 2 μL of 400× test compound into the designated wells on ice. Next, added 200 μL of 0.2 mg/mL HLM to the assay wells and then added 1 μL of reference inhibitor solutions into the designated wells. The following solutions were added (in duplicate) to a 96-well assay plate on ice: The test compounds and reference inhibitors (quinidine for 2D6, ketoconazole for 3A4) were tested using the following experimental procedure:
(§5) 10. Incubate the assay plate at 37° C. 5 min for 3A4, 10 min for 2D6.
(§6) 11. Stop the reaction by adding 120 μL of ACN containing Internal Standard. For CYP3A4, the internal standard is 1′OH-midazolam-D4 (10 μM solution diluted to a final concentration of 0.1 μM by adding 100 μL internal standard stock to 10 mL ACN). For CYP2D6, the internal standard is 1-OH-Bufuralol-maleate-[D9] (49 μM solution diluted to a final concentration of 0.1 μM by adding 20 μL internal standard stock to 10 mL ACN).
(§7) The assessment on CYP isoform inhibition is as follows based on the assay results: if percentage of CYP inhibition is higher than 50%, indicates potent inhibition; if percentage of CYP inhibition is between 30-50%, indicates […]; if percentage of CYP inhibition is less than 30%, indicates slight or no inhibition. If the percentage of CYP inhibition is less than −30%, this indicates the compound may have some kind of activation of this isoform.

HDAC2 [1] = biological target: T3, HDAC2 (Homo sapiens, UniProt Q92769); assay: HDAC2 enzymatic inhibition assay in SY5Y cell lysate with HDAC-Glo2 substrate; type: cell-based; parameters: host or cells: SH-SY5Y; details: SH-SY5Y cells, 5 h compound incubation, HDAC-Glo 2 reagent
Protocol: HDAC2 Enzymatic Inhibition Assay in SY5Y Cell Lysate with HDAC-Glo2 Substrate
SH-SY5Y cells (Sigma) were cultured in Eagle's Modified Essential Medium supplemented with 10% fetal bovine serum and pen/strep. Twenty-four hours prior to compound dosing 20 uL of cells were plated in white 384 well plates at a density of 1,500 cells/well. Compounds were serially diluted in neat DMSO and then diluted 1:100 v/v into media without FBS and mixed. Media was removed from the plated cells and the diluted compounds in serum free media (1% v/v final DMSO) were added and incubated at 37.0 for five hours. Ten uL of HDAC-Glo 2 reagent with 0.1% Triton X-100 was then added, the plate was mixed and allowed to develop at room temperature for 100 minutes. Plates were then read with a Spectramax LMax luminometer employing a 0.4 s integration time. Dose response curves were constructed with normalized data where CI-994 at 100 uM was defined as 100% inhibition and DMSO alone as 0% inhibition.

HDAC2 [2] = biological target: T3, HDAC2; assay: HDAC2 recombinant enzymatic assay; type: biochemical; parameters: purchased BPS Bioscience; details: 5 h pre-incubation, 5 nM enzyme; read-out: HDAC recombinant enzymatic IC50 HDAC2
Protocol: as §1, §2

CYP2D6 = biological target: T4, CYP2D6 (Homo sapiens, UniProt P10635); assay: CYP inhibition assay in human liver microsomes (2D6); type: in vitro ADME; details: for inhibition at 10 min, 10 µM: human liver microsomes; for inhibition of CYP2D6 (in words): 10 μM
T4 construct: Human liver microsomes were obtained from BD Gentest; tissue BD Gentest; host or cells: human liver microsomes
Protocol: as §3, §4, §5, §6, §7

[3] = Aqueous kinetic solubility measurement; type: physicochemical; details: for solubility at 1 h: aqueous buffer, kinetic from dmso stock, kinetic, 100 mM phosphate buffer pH 7.4, 1% DMSO
Protocol: Compounds were evaluated for their kinetic solubility in buffer or water. Aliquots of 8 μL of reference and test compound stock solutions (10 mM in DMSO) were added into 792 μL of 100 mM phosphate buffer (0.1 M NaPO4, pH 7.4). Final DMSO concentration is 1%. The sample tubes were shaken for 1 hour (1000 rpm) at room temperature. A calibration curve was prepared using 300 μM spiking solution (SS) in MeOH/ACN(4:1) (SS=add 6 μL 10 mM compound in 194 μL MeOH/ACN(4:1)). Samples were centrifuged for 10 min (12000 rpm) to precipitate undissolved particles, and the supernatants were transferred to a new tube or plate. Supernatants were diluted 10 times and 100 times with 100 mM buffer. Samples were then prepared for analysis by LC-MS/MS (Add 5 μL of compound samples (not diluted, 10 times diluted and 100 times diluted) and standard curve samples to 95 μL of ACN containing internal standard. Internal standards used are Propranolol, Ketoconazole, and Tamoxifen.

[4] = tested on: human erythroid progenitors (CFU-E, BFU-E); assay: Erythroid CFU assay in human bone marrow cells; type: cell-based
Protocol: (§8) Compounds were tested to evaluate the potential effects on human erythroid and myeloid progenitors using colony forming cell assays. Clonogenic progenitors of human erythroid (CFU-E, BFU-E), granulocyte-monocyte (CFU-GM) and multipotential (CFU-GEMM) lineages were assessed in a semi-solid methylcellulose-based media formulation containing rhlL-3 (10 ng/mL), rhGM-SCF (10 ng/mL), rhSCF (50 ng/mL) and Epo (3 U/mL).
(§9) Normal human bone marrow light density cells derived from normal bone marrow (NorCal Biologics, California) and qualified at ReachBio, were stored in the gaseous phase of liquid nitrogen (−152° C.) until required for the assay. On the day of the experiment, the cells were thawed rapidly, the contents of each vial was diluted in 10 mL of Iscove's modified Dulbecco's medium containing 10% fetal bovine serum (IMDM+10% FBS) and washed by centrifugation (approximately 1200 r.p.m. for 10 minutes, room temperature). The supernatant was discarded and the cell pellets resuspended in a known volume of IMDM+10% FBS. A cell count (3% glacial acetic acid) and viability assessment (trypan blue exclusion test) was performed for the bone marrow sample.
(§10) On the day of the experiment, the compounds were dissolved in DMSO to a stock concentration of 10 mM. Serial dilutions were prepared from the stock concentration to achieve concentrations of 2 and 0.4 mM. When added to the methylcellulose-based media at 1:1000 (v/v), the final test concentrations of 10, 2 and 0.4 μM were achieved. Additionally, 5-FU was evaluated at 1.0, 0.1 and 0.01 μg/mL.
(§11) Clonogenic progenitors of the human erythroid (CFU-E and BFU-E) and myeloid (CFU-GM) lineages were set up in the methylcellulose-based media formulations described above. All compounds were added to the medium to give the final desired concentrations (10, 2 and 0.4 μM). 5-Fluorouracil (Sigma Aldrich) was used as a positive control for progenitor proliferation (inhibition of colony growth) and was introduced to the human bone marrow cultures at 1.0, 0.1, and 0.01 μg/mL. Solvent control cultures (containing no compound but 0.1% DMSO) as well as standard controls (containing no compound and no DMSO) were also initiated.
(§12) Human myeloid and erythroid progenitor assays were initiated at 2.0×10^4 cells per culture. Following 14 days in culture, myeloid and erythroid colonies were assessed microscopically and scored by trained personnel. The colonies were divided into the following categories based on size and morphology: CFU-E, BFU-E, CFU-GM and CFU-GEMM.
(§13) The mean±one standard deviation of three replicate cultures was calculated for progenitors of each category (CFU-E, BFU-E, etc.). Two-tailed t-tests were performed to assess if there was a difference in the number of colonies generated between solvent control and treated cultures. Due to the potential subjectivity of colony enumeration, a p value of less than 0.01 is deemed significant. To calculate the concentration of 50% inhibition of colony growth (IC50) for each compound, a dose response curve was generated plotting the log of the compound concentration versus the percentage of control colony growth using XLfit software (IDBS). The concentration of 50% inhibition of colony growth (IC50) was calculated based on the sigmoid curve fit using Dose-Response, One-Site Model formula: y=A+[(B−A)/(1+((C/x)^D))], where A=the initial value (baseline response), B=maximum response, C=center (drug concentration that provokes a response halfway between A and B) and D=slope of the curve at midpoint. Further, plots and additional dose response curves were generated using GraphPad Prism 7.0.
(§14) Erythroid (CFU-E and BFU-E), myeloid (CFU-GM) and multi-potential (CFU-GEMM) colony enumeration was performed by trained personnel. The distribution of colony types as well as general colony and cellular morphology was analyzed. For statistical analysis colony numbers in compound treated cultures were compared to the solvent control cultures. […]

[5] = tested on: human myeloid progenitors (CFU-GM); assay: Myeloid CFU assay in human bone marrow cells; type: cell-based
Protocol: as §8, §9, §10, §11, §12, §13, §14

[6] = 10 μM, 14 days culture, human bone marrow cells

T4 sequence (P10635 whole entry): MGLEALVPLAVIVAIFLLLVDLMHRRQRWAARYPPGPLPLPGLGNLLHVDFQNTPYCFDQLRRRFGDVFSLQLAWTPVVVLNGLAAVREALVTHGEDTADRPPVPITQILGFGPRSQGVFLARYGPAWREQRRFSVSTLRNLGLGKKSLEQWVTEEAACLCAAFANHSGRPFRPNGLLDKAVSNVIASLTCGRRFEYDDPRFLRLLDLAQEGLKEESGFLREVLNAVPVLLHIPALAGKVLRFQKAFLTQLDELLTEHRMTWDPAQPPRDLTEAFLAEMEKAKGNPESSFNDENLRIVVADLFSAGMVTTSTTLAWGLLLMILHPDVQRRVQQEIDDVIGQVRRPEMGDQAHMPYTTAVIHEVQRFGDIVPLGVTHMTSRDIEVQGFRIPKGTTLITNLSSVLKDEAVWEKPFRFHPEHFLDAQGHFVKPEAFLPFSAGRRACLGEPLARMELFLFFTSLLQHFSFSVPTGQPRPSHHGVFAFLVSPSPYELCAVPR
T1 sequence (Q13547 whole entry): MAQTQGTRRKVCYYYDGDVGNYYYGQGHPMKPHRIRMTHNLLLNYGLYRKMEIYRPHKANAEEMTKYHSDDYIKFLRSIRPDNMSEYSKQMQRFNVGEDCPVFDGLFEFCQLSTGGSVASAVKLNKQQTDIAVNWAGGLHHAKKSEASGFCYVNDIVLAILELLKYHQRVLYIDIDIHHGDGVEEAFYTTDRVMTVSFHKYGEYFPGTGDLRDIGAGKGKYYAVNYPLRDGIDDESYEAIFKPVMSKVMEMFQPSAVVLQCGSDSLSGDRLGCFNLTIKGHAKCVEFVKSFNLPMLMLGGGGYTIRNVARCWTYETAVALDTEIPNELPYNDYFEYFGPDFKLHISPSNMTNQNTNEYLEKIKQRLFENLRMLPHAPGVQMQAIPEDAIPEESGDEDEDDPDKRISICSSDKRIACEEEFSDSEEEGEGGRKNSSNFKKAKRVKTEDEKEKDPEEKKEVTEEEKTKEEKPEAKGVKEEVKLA
T2 sequence (P08684 whole entry): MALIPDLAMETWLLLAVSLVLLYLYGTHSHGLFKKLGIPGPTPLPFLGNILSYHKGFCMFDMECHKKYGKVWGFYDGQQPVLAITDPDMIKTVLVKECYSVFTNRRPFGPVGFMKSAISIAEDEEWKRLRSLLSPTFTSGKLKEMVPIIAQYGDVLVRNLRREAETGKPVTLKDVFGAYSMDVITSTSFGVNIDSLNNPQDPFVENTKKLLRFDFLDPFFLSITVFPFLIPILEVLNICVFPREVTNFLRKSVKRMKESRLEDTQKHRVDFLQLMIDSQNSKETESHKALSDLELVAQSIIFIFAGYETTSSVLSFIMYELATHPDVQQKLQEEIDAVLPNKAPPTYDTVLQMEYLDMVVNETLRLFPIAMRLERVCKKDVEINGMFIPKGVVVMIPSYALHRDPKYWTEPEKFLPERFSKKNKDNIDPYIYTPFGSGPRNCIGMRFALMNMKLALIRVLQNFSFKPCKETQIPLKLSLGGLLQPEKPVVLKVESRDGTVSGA
T3 sequence (Q92769 whole entry): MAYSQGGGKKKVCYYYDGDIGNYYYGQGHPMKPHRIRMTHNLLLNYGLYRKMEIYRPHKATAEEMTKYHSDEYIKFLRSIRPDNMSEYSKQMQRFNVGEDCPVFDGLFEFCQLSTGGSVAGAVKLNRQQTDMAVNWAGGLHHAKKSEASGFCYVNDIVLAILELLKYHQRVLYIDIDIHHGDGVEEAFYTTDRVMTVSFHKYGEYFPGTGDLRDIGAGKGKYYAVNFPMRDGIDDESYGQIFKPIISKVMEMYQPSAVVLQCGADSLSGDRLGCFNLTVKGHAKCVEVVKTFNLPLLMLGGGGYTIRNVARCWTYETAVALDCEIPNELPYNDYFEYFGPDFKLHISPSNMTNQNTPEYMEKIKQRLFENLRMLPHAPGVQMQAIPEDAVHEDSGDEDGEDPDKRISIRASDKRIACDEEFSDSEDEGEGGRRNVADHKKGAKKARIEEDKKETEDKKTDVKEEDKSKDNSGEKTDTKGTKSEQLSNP

SMILES	IC50 (HDAC1) [nM]	inhibition at 5 min, 10 µM (CYP3A4) [%]	IC50 (HDAC2 [1]) [nM]	IC50 (HDAC2 [2]) [nM]	inhibition at 10 min, 10 µM (CYP2D6) [%]	solubility at 1 h [3] [µM]	inhibition of CYP3A4 (in words) (CYP3A4; 10 μM)	inhibition of CYP2D6 (in words) (CYP2D6)	inhibitory effects on erythroid colony growth (positive control, in words) ([4]; 1.0, 0.1 and 0.01 μg/mL)	inhibitory effects on myeloid colony growth (positive control, in words) ([5]; 1.0, 0.1 and 0.01 μg/mL)	CFU % Control remaining @ 10 μM Erythroid [4, 6] [%]	CFU % Control remaining @ 10 μM Myeloid [5, 6] [%]	solubility (in words) [3]
Cc1cc2c(cn1)CN(C(=O)Nc1nc(-c3ccc(F)cc3)ccc1N)C2 [Comparator H]	90	28	621	214	57	78 (≈ 28.3 µg/mL)							
Nc1ccc(-c2ccc(F)cc2)nc1NC(=O)N1Cc2ccncc2C1 [Comparator G]	143	65	639	335	94	55 (≈ 19.2 µg/mL)	inhibited at high levels	inhibited at high levels					
O=c1[nH]cc(F)c(=O)[nH]1 [Compound 5-FU, 5-Fluorouracil]									exactly as expected	exactly as expected			
COCc1cc2c(cn1)CN(C(=O)Nc1nc(-c3ccc(F)cc3)ccc1N)C2 [Comparator I]		33	666		2	121 (≈ 47.6 µg/mL)					23	59	
Nc1ccc(-c2ccc(F)cc2)nc1NC(=O)N1Cc2cccnc2C1 [Comparator F]	79	-4	394	304	62	1 (≈ 0.349 µg/mL)		high levels					extremely low
